Assay results published in patent US8993606B2, “Oral formulations for treating metal overload” (FerroKin BioSciences, Inc., priority 2011, dated 2015).

Key:
Format in all cases: in vivo, human
[1] = Preliminary analysis of pharmacokinetic results from the clinical studies as a whole
Excerpt: The results were similar across the common doses in the 4 studies. […] See also FIG. 10.

[2] = test system: adult subjects with documented transfusional iron overload; assay: Safety: ongoing randomized open-label study, 16 or 32 mg/kg/day, transfusional iron overload
Procedure: This study is an ongoing multicenter, randomized, open-label study of adult subjects with documented transfusional iron overload in need of chelation therapy. Subjects received investigational product for 24 weeks with an extension of 72 weeks for the evaluation of long-term safety and efficacy. Subjects were stratified according to transfusional iron intake (transfusion burden) then randomized to receive Compound 1 at 16 or 32 mg/kg/day. The investigational product was administered orally once daily for 24 weeks. At the conclusion of the 24-week dosing period, qualified subjects were allowed to continue receiving Compound 1 for an additional 72 weeks. Dose adjustments from 24 weeks onward are permitted if clinically indicated. Fifty-one subjects enrolled and completed the first 24 weeks of the study; 49 subjects entered the 72-week extension.

[3] = test system: pediatric subjects (aged 6-18 years) with documented transfusional iron overload; assay: Safety: pediatric Phase 2 study
Excerpt: A pediatric study is an ongoing Phase 2 multicenter, randomized, open-label study of pediatric subjects (aged 6-18 years) with documented transfusional iron overload in need of chelation therapy. 6 subjects (aged 12-<18 years) of a planned 30 subjects had been enrolled and administered investigational product. These subjects received a single dose for pharmacokinetic analysis with the option to continue in the 48-week study. […] Dosing was temporarily discontinued for 2 subjects; 1 subject for moderate decrease in neutrophil count, which was considered possibly related, and 1 for a mild upper respiratory tract infection that was considered not related. Treatment-emergent AEs were reported for 5 of the 6 subjects. Treatment emergent AEs considered possibly related to the investigational product include arthralgia (1), decreased neutrophil count (1), neutropenia (1), and headache (1).

With `COCCOCCOCCOc1cccc(C2=N[C@@](C)(C(=O)O)CS2)c1O` [Compound 1, (S)-4,5-Dihydro-2-[2-hydroxy-3-(3,6,9-trioxadecyloxy)phenyl]-4-methyl-4-thiazolecarboxylate magnesium hydroxide] the dose proportionality ([1]; dosing range of 3 to 50 mg/kg, preliminary analysis) was “dose-proportionality in Cmax and AUC”, the Tmax ([1]; human, plasma, oral, in each study) was about 1 h and the TEAE headache ([2]; 5 subjects) was 9.8%. For the same compound, the TEAE increased transaminases ([2]; 8 subjects) was 15.7%, the “Treatment-related gastrointestinal TEAEs” value ([2]; 17 subjects) was 33.3% and the “subjects with at least 1 related TEAE” value ([2]; 31/51 subjects) was 61%. For the same compound, the Elevations in transaminases ([2]; 72 week treatment period) was “not significant”, the Mean serum creatinine ([2]; 72 week treatment period, remained in the normal range) was “did not change from baseline” and the TEAE diarrhea ([2]; N=3) was 5.9%. For the same compound, the TEAE flatulence ([2]; N=6) was 11.8%, the “Any TEAE” value ([2]; Total (N = 51)) was 49 (96.1%) N (%) and the “Creatinine increase >33% and creatinine <=ULN at 2 consecutive post-baseline visits” value ([2]; Total (N = 51)) was 2 (3.9) N (%). The “Creatinine increase >33% and creatinine >ULN at 2 consecutive post-baseline visits” value ([2]; Total (N = 51)) was 0 N (%), the “Creatinine increase and creatinine >ULN at 2 consecutive post-baseline visits” value ([2]; Total (N = 51)) was 1 (2.0) N (%) and the “Serious TEAE” value ([2]; Total (N = 51)) was 5 (9.8%) N (%). The “TEAE Related to Investigational Product” value ([2]; Total (N = 51)) was 31 (60.8%) N (%), the “TEAE Requiring Discontinuation of Study Drug” value ([2]; Total (N = 51)) was 14 (27.5%) N (%) and the serum creatinine levels ([2]; as of Week 48) was “no trends”. The tolerability ([2]; doses tested (8-50 mg/kg/day)) was “generally well tolerated”, the SAEs ([2]; in four subjects, none judged related to treatment) was 10 SAEs and the “severity of all related TEAEs” value ([2]; in vivo) was “mild to moderate”. The “possibly related TEAE arthralgia” value ([3]; 6 subjects) was 1, the “possibly related TEAE decreased neutrophil count” value ([3]; 6 subjects) was 1 and the “possibly related TEAE headache” value ([3]; 6 subjects) was 1. The “possibly related TEAE neutropenia” value ([3]; 6 subjects) was 1, the SAEs ([3]; 6 subjects aged 12-<18 years) was “No SAEs have been reported” and the “subjects with treatment-emergent AEs” value ([3]; 6 subjects aged 12-<18 years) was 5 of the 6.
